Earlier results in patent EP2391353B1, “PHARMACEUTICAL COMPOSITIONS OF TRIMETAZIDINE” (Lupin Limited, priority 2009, dated 2010).

Details: administered orally

For `COc1ccc(CN2CCNCC2)c(OC)c1OC.Cl.Cl` [Trimetazidine dihydrochloride, 1-(2,3,4-trimethoxybenzyl)-piperazine dihydrochloride], the Tmax is given as “around 1.8 ± 0.7 hours” and the plasma half-life is given as “around 6.0 ± 1.4 hours”.
